Laboratory results reported in patent US20250320213A1, “Nitrogen-Containing Heterocyclic Compounds” (Pfizer Inc., priority 2024, published 2025).
pEC50, pIC50: −log10 of the molar value. Read-outs that look alike come from different tables or passages of the source.

Experiments:
STAT6 = molecular target: T1, STAT6 (Homo sapiens, UniProt P42226); assay: STAT6 Reporter Luciferase Assay (IL-13 stimulated HaCaT keratinocyte NanoLuc reporter cells); assay type: cell-based; details: read-out: Reporter EC50
T1 construct: stably transfected HaCaT keratinocyte cell line, which expresses NanoLuc luciferase reporter gene under the transcriptional control of the STAT6 responsive promoter; endogenous in cells; host or cells: HaCaT keratinocyte reporter cell line (stably transfected with a NanoLuc reporter)
T1 sequence (P42226 1-847): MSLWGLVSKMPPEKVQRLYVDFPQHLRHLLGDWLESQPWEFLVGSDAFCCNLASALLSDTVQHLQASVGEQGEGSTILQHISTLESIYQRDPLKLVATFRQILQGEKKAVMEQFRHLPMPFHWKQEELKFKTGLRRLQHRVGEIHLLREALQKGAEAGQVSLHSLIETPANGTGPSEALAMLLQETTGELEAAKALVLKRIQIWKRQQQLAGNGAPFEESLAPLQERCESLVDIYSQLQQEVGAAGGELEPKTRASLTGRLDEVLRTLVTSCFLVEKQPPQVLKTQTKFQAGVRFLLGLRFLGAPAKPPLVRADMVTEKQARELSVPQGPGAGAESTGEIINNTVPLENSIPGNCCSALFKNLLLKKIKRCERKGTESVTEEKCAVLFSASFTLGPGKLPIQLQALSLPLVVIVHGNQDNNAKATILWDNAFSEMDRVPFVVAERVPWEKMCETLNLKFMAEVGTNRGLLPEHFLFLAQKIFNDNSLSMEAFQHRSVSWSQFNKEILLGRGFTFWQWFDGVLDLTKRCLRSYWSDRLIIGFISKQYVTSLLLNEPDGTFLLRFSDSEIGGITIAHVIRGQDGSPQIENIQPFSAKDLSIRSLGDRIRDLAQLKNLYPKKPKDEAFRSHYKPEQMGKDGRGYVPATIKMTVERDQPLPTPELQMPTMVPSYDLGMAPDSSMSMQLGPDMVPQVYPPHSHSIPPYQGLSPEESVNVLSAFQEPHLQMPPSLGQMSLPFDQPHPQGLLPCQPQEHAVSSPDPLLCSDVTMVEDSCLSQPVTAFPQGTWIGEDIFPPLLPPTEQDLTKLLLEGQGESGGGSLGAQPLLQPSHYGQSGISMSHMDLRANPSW
Procedure, shortened: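 Stably transfected HaCaT cells carrying NanoLuc under the STAT6-responsive IL-13Ra2 promoter were pre-treated with compound (11-point, 4-fold series, duplicate) for 2 h at 37 °C, then stimulated with 0.12 nM IL-13 for 4 h. Nano-Glo luminescence was read after 15 min.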

[1] = tested on: CCL17 secretion in peripheral human whole blood; assay: Human Whole Blood (HWB) CCL17 TR-FRET Assay (IL-13 stimulated CCL17 secretion); assay type: cell-based
Procedure, shortened: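 IC50 comes from serum CCL17 measured by a TR-FRET sandwich assay (16 h at room temperature, 665/615 nm ratio). Beforehand, blood in sodium heparin was exposed to an 11-point, 3-fold compound series for 2 h at 37°C and then to 10 ng/mL IL-13 for 48 h.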

[2] = IL-13 stimulated HaCaT STAT6 NanoLuc reporter cells
[3] = Homo sapiens, 48 h, human whole blood, IL-13 stimulated
[4] = Homo sapiens, 48 h, human whole blood, 10 ng/mL IL13, 48 hours
[5] = STAT6 NanoLuc luciferase reporter, IL-13 stimulated HaCaT keratinocyte cells
[6] = inhibition of CCL17 secretion in human whole blood, 10 ng/mL IL13, 48 hours

SMILES | pEC50 (STAT6; [2]) | pIC50 [1, 3] | pEC50 (STAT6; [5]) | pIC50 [1, 6] | other results
CCn1nc(C(=O)NCc2ccc(C(=O)NC)cc2)c2c1C(C(F)(F)F)CN(c1ccc(C(=O)N(C)C)cn1)C2 (racemic) [Example 463, rac-(R)-5-(5-(dimethylcarbamoyl)pyridin-2-yl)-1-ethyl-N-(4-(methylcarbamoyl)benzyl)-7-(trifluoromethyl)-4,5,6,7-tetrahydro-1H-pyrazolo[4,3-c]pyridine-3-carboxamide] | 8.57 | 7.64 |  |  | 
CC(C)n1nc(C(=O)NCc2ccc(NC(=O)N(C)C)cc2)c2c1CCN(c1ccc(C3CCNC3=O)cn1)C2 (racemic) [Example 469, rac-(R)—N-(4-(3,3-Dimethylureido)benzyl)-1-isopropyl-5-(5-(2-oxopyrrolidin-3-yl)pyridin-2-yl)-4,5,6,7-tetrahydro-1H-pyrazolo[4,3-c]pyridine-3-carboxamide] | 5.29 |  |  |  | pIC50 ([1]; human whole blood, IL-13 stimulated, 48 hours): < 5.38
CC(C)n1nc(C(=O)NCc2ccc(NC(=O)N(C)C)cc2)c2c1CCN(c1ccc(C3CCN(C)C3=O)cn1)C2 (racemic) [Example 505, rac-(R)-N-(4-(3,3-dimethylureido)benzyl)-1-isopropyl-5-(5-(1-methyl-2-oxopyrrolidin-3-yl)pyridin-2-yl)-4,5,6,7-tetrahydro-1H-pyrazolo[4,3-c]pyridine-3-carboxamide] | 5.10 | < 4.52 |  |  | 
CC1c2c(C(=O)NCc3ccc(NC(=O)N(C)C)cc3)nn(C(C)C)c2[C@@H](C)CN1c1ccc(C(=O)N(C)C)cn1 (mixture of isomers) [Example 524, (4RS,7S)-5-(5-(Dimethylcarbamoyl)pyridin-2-yl)-N-(4-(3,3-dimethylureido)benzyl)-1-isopropyl-4,7-dimethyl-4,5,6,7-tetrahydro-1H-pyrazolo[4,3-c]pyridine-3-carboxamide] | 10.00 | 8.22 |  |  | 
CC(C)c1nc(C(=O)NCc2ccc(NC(=O)N(C)C)cc2)c2n1[C@@H](C)CN(c1ccc(C(=O)N(C)C)cc1)C2 (racemic) [Example 537, rac-(R)-7-(4-(Dimethylcarbamoyl)phenyl)-N-(4-(3,3-dimethylureido)benzyl)-3-isopropyl-5-methyl-5,6,7,8-tetrahydroimidazo[1,5-a]pyrazine-1-carboxamide] | 9.00 |  |  |  | pIC50 [1, 4]: 8.00
CC1CN(c2ccc(C(=O)N(C)C)cn2)Cc2c(C(=O)NCc3ccc(NC(=O)N(C)C)cc3)nn(C)c21 (single isomer, unassigned) [Example 7, rel-(R or S)-5-(5-(Dimethylcarbamoyl)pyridin-2-yl)-N-(4-(3,3-dimethylureido)benzyl)-1,7-dimethyl-4,5,6,7-tetrahydro-1H-pyrazolo[4,3-c]pyridine-3-carboxamide] |  |  | 7.48 | 6.71 | 
CC1CN(c2ccc(C(=O)N(C)C)cn2)Cc2c(C(=O)NCc3ccc(NC(=O)N(C)C)cc3)nn(C)c21 (single isomer, unassigned) [Example 8, rel-(R or S)-5-(5-(Dimethylcarbamoyl)pyridin-2-yl)-N-(4-(3,3-dimethylureido)benzyl)-1,7-dimethyl-4,5,6,7-tetrahydro-1H-pyrazolo[4,3-c]pyridine-3-carboxamide] |  |  | 8.52 | 7.85 | 
Cc1nc(C(=O)NCc2ccc(NC(=O)N(C)C)cc2)c2n1C(C)CN(c1ccc(C(=O)N(C)C)cn1)C2 (single isomer, unassigned) [Example 53, rel-(R or S)-7-(5-(dimethylcarbamoyl)pyridin-2-yl)-N-(4-(3,3-dimethylureido)benzyl)-3,5-dimethyl-5,6,7,8-tetrahydroimidazo[1,5-a]pyrazine-1-carboxamide] |  |  | 8.10 | 7.72 | 
Cc1nc(C(=O)NCc2ccc(NC(=O)N(C)C)cc2)c2n1C(C)CN(c1ccc(C(=O)N(C)C)cn1)C2 (single isomer, unassigned) [Example 54, rel-(R or S)-7-(5-(dimethylcarbamoyl)pyridin-2-yl)-N-(4-(3,3-dimethylureido)benzyl)-3,5-dimethyl-5,6,7,8-tetrahydroimidazo[1,5-a]pyrazine-1-carboxamide] |  |  | 6.92 | 6.48 | 
CCC1CN(c2ccc(C(=O)N(C)C)cn2)Cc2c(C(=O)NCc3ccc(NC(=O)N(C)C)cc3)nn(C)c21 (single isomer, unassigned) [Example 58, rel-(R or S)-5-(5-(Dimethylcarbamoyl)pyridin-2-yl)-N-(4-(3,3-dimethylureido)benzyl)-7-ethyl-1-methyl-4,5,6,7-tetrahydro-1H-pyrazolo[4,3-c]pyridine-3-carboxamide] |  |  | 7.62 | 6.77 | 
CCn1nc(C(=O)NCc2ccc(NC(=O)N(C)C)cc2)c2c1[C@H](C)CN(c1ccc(C(=O)N(C)C)cn1)C2 (single isomer, unassigned) [Example 63] |  |  | 7.85 |  | pIC50 ([1]; Homo sapiens, 48 h, inhibition of CCL17 secretion in human whole blood, 10 ng/mL IL13, 48 hours): 6.98
CCC1CN(c2ccc(C(=O)N(C)C)cn2)Cc2c(C(=O)NCc3ccc(NC(=O)N(C)C)cc3)nn(C)c21 (single isomer, unassigned) [Example 78, rel-(R or S)-5-(5-(Dimethylcarbamoyl)pyridin-2-yl)-N-(4-(3,3-dimethylureido)benzyl)-7-ethyl-1-methyl-4,5,6,7-tetrahydro-1H-pyrazolo[4,3-c]pyridine-3-carboxamide] |  |  | 8.52 | 7.85 | 

Second part, led by results:

pEC50 (STAT6; [2]) | pIC50 [1, 3] | SMILES | pEC50 (STAT6; [5]) | pIC50 [1, 6] | other results
9.52 | 8.70 | CC(C)n1nc(C(=O)NCc2ccc(NC(=O)N(C)C)cc2)c2c1C(C(F)(F)F)CN(c1ncc(C(=O)N(C)C)cn1)C2 (racemic) [Example 459, rac-(R)-5-(5-(dimethylcarbamoyl)pyrimidin-2-yl)-N-(4-(3,3-dimethylureido)benzyl)-1-isopropyl-7-(trifluoromethyl)-4,5,6,7-tetrahydro-1H-pyrazolo[4,3-c]pyridine-3-carboxamide] |  |  | 
9.52 | 8.15 | CCn1nc(C(=O)NCc2ccc(NC(=O)N(C)C)cc2)c2c1C(C(F)(F)F)CN(c1ncc(C(=O)N(C)C)cn1)C2 (racemic) [Example 460, rac-(R)-5-(5-(dimethylcarbamoyl)pyrimidin-2-yl)-N-(4-(3,3-dimethylureido)benzyl)-1-ethyl-7-(trifluoromethyl)-4,5,6,7-tetrahydro-1H-pyrazolo[4,3-c]pyridine-3-carboxamide] |  |  | 
7.39 | 6.92 | CC(C)n1nc(C(=O)NCc2ccc(NC(=O)N(C)C)cc2)c2c1C(O)CN(c1ccc(C(=O)N(C)C)cn1)C2 (racemic) [Example 472, rac-(R)-5-(5-(dimethylcarbamoyl)pyridin-2-yl)-N-(4-(3,3-dimethylureido)benzyl)-7-hydroxy-1-isopropyl-4,5,6,7-tetrahydro-1H-pyrazolo[4,3-c]pyridine-3-carboxamide] |  |  | 
9.00 |  | CCn1nc(C(=O)NCc2ccc(NC(=O)N(C)C)cc2)c2c1C(C)CN(c1ncc(C(=O)N(C)C)cn1)C2 (racemic) [Example 531, rac-(R)-5-(5-(dimethylcarbamoyl)pyrimidin-2-yl)-N-(4-(3,3-dimethylureido)benzyl)-1-ethyl-7-methyl-4,5,6,7-tetrahydro-1H-pyrazolo[4,3-c]pyridine-3-carboxamide] |  |  | pIC50 [1, 4]: 7.85
9.00 |  | CC1CN(c2ncc(C(=O)N(C)C)cn2)Cc2c(C(=O)NCc3ccc(NC(=O)N(C)C)cc3)nn(C(C)C)c21 (racemic) [Example 532, rac-(R)-5-(5-(dimethylcarbamoyl)pyrimidin-2-yl)-N-(4-(3,3-dimethylureido)benzyl)-1-isopropyl-7-methyl-4,5,6,7-tetrahydro-1H-pyrazolo[4,3-c]pyridine-3-carboxamide] |  |  | pIC50 [1, 4]: 8.40
9.52 |  | CC(C)n1nc(C(=O)NCc2ccc(NC(=O)N(C)C)cc2)c2c1C(C(F)(F)F)CN(c1ccc(C(=O)N(C)C)cn1)C2 (racemic) [Example 546, rac-(R)-5-(5-(Dimethylcarbamoyl)pyridin-2-yl)-N-(4-(3,3-dimethylureido)benzyl)-1-isopropyl-7-(trifluoromethyl)-4,5,6,7-tetrahydro-1H-pyrazolo[4,3-c]pyridine-3-carboxamide] |  |  | pIC50 [1, 4]: 8.30
